Measurements published in publication PMC5421464, “Characterization of the single-subunit oligosaccharyltransferase STT3A from Trypanosoma brucei using synthetic peptides and lipid-linked oligosaccharide analogs” (Glycobiology, 2017).

Assays:
[1] = system: octa-subunit OST complex from yeast; set-up: method as in Tai and Imperiali 2001; conditions: ref Tai and Imperiali 2001; cited from earlier work
[2] = system: octa-subunit OST complex from pig liver; set-up: method as in Bause et al. 1995; conditions: ref Bause et al. 1995; cited from earlier work
bacterial flippase PglK = system: bacterial flippase PglK; set-up: method as in Perez et al. 2015; conditions: in detergent; ref Perez et al. 2015; cited from earlier work
PglB = PglB (Campylobacter lari, UniProt B9KDD4); test: In vitro substrate test with PglB; format: biochemical; conditions: data not shown
TbSTT3A = target: T1, TbSTT3A (Trypanosoma brucei, UniProt Q57W34); test: In vitro glycosylation assay, turnover rate of acceptor peptides (Tricine SDS-PAGE fluorescence); format: biochemical; conditions: 50 µM donor, overnight incubation, vast excess substrate
T1 sequence (Q57W34 1-801): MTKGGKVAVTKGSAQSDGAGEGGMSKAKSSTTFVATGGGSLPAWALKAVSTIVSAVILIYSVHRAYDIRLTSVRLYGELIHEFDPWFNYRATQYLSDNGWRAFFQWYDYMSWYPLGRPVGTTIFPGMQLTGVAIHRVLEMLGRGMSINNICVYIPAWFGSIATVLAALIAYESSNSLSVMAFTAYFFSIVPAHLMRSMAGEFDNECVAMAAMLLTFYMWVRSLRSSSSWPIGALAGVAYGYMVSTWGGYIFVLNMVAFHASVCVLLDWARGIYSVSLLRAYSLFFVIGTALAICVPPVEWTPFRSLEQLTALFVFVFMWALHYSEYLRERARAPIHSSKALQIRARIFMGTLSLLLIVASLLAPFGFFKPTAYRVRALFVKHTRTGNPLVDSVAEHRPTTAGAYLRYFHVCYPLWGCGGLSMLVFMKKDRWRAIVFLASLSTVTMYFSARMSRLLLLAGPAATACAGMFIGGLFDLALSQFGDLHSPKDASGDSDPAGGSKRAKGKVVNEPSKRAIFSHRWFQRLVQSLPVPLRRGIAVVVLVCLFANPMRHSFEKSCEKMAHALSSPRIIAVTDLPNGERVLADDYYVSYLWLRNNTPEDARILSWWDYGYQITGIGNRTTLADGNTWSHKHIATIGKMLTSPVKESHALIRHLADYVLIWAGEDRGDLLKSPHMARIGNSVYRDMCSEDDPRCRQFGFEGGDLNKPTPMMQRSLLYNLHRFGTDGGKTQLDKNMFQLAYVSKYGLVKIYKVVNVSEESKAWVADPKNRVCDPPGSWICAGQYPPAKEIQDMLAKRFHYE
Description: Fig. 2. Optimization of the acceptor peptide sequence. (A) Synthetic acceptor peptides are shown in single letter code. The acceptor asparagine (zero position of the sequon) is indicated in red. Glycosylation experiments were performed and the fluorescently labeled substrate (G0) and product (G1) were quantified following Tricine SDS-PAGE analysis. (B) Turnover rates after fitting the time points by linear regression using PRISM. Error bars indicate standard error of the fitting. (C) Kinetic analysis of substrate peptides: glycosylation experiments were performed with 20 nM purified TbSTT3A, 50 µM farnesyl-PP-chitobiose, 10 mM MnCl2, 150 mM NaCl, 20 mM Hepes pH 7.5, 0.035% DDM, 0.007% CHS and different concentrations of peptides varying from 2 to 60 µM. Data points reflect the mean of three separate measurements. Error bars indicate standard deviations. Data were fitted by nonlinear regression according to the Michaelis–Menten formula using PRISM. This figure is available in black and white in print and in color at Glycobiology online.
Reaction mixtures contained 20 nM purified TbSTT3A protein, 50µM farnesyl-PP-GlcNAc or farnesyl-PP-chitobiose, 10 mM MnCl2, 150 mM NaCl, 20 mM Hepes pH 7.5, 0.035% DDM, 0.007% CHS and 20 µM of the peptide. Reactions were incubated at 30°C. Samples were taken at different time points and reactions were stopped by the addition of 4X SDS Laemmli buffer. Samples were diluted 200-fold prior to analysis by Tricine SDS-PAGE consisting of a 16% resolving gel with 6 M urea, a 10% spacer gel and a 4% stacking gel ([Schägger 2006]). Fluorescent bands for peptide and glycopeptide were visualized by using a Typhoon Trio Plus imager (GE Healthcare) with excitation set at 488 nm and using a 526 nm SP emission filter. The amount of formed glycopeptide was determined from band intensities of fluorescence gel scans (ImageJ) ([Gerber et al. 2013]). Turnover rate determination was performed by fitting of the data to linear regression using PRISM software.
Supplementary Figure 2: Glycosylation Assays with farnesyl-PP-GlcNAc. In vitro glycosylation experiments were performed with 20nM purified TbStt3A purified protein, 50µM Farnesyl-PP-GlcNAc or Farnesyl-PP-GlcNac2, 10 mM MnCl2, 150 mM NaCl, 20 mM Hepes pH 7.5, 0.035% DDM, 0.007% CHS and 10 µM of the peptide P1.

[3] = substrate: CC(=O)N[C@H]1[C@@H](OP(=O)(O)OP(=O)(O)OC/C=C(\C)CC/C=C(\C)CCC=C(C)C)O[C@H](CO)[C@@H](O[C@@H]2O[C@H](CO)[C@@H](O)[C@H](O)[C@H]2NC(C)=O)[C@@H]1O; test: Michaelis-Menten kinetics of the LLO analogs; format: biochemical, Trypanosoma brucei; conditions: other: 20 nM TbSTT3A, 10 µM acceptor peptide, varying LLO analog concentration; pH 7.5
Description: (§1) Fig. 3. (A) Structure of the LLO analogs synthesized (1a) (S)-Citronellyl-PP-Chitobiose, C10; (1b) farnesyl-PP-chitobiose, C15; (1c) (S)-NerylCitronellyl-PP-chitobiose, C20; (1d) (S)-farnesylCitronellyl-PP-chitobiose, C25. (B) Kinetic analysis of synthetic LLO analogs. Glycosylation experiments were performed with 20 nM purified TbSTT3A, 10 µM […], 10 mM MnCl2, 150 mM NaCl, 20 mM Hepes pH 7.5, 0.035% DDM, 0.007% CHS and different concentrations of synthetic LLO analogs. Data points reflect the mean of 3 separate measurements. Error bars indicate standard deviations. Data were fitted by nonlinear regression according to the Michaelis–Menten formula using PRISM software. This figure is available in black and white in print and in color at Glycobiology online.
(§2) For Michaelis–Menten kinetics of the LLO analogs, reaction mixtures containing 20 nM TbSTT3A protein, 10 µM peptide P11, 10 mM MnCl2, 150 mM NaCl, 20 mM Hepes pH 7.5, 0.035% DDM and 0.007% CHS were incubated with different concentrations of LLO analogs (10–900 µM, for 1a; 2–60 µM, for 1b; 1–50 µM, for 1c and 1–20 µM, for 1d). Samples were taken at different time points and turnover rates of the reactions were determined as before. Data were fitted by nonlinear regression according to the Michaelis–Menten formula using PRISM software.

[4] = substrate: [H][C@@]1(O[C@H]2[C@H](O)[C@@H](NC(C)=O)[C@@H](OP(=O)(O)OP(=O)(O)OCC[C@@H](C)CCC=C(C)C)O[C@@H]2CO)O[C@H](CO)[C@@H](O)[C@H](O)[C@H]1NC(C)=O; test: Michaelis-Menten kinetics of the LLO analogs; format: biochemical, Trypanosoma brucei; conditions: other: 20 nM TbSTT3A, 10 µM acceptor peptide, varying LLO analog concentration; pH 7.5
Description: as §1, §2

[5] = substrate: CC(=O)N[C@H]1[C@@H](OP(=O)(O)OP(=O)(O)OCC[C@@H](C)CC/C=C(/C)CC/C=C(\C)CC/C=C(\C)CCC=C(C)C)O[C@H](CO)[C@@H](O[C@@H]2O[C@H](CO)[C@@H](O)[C@H](O)[C@H]2NC(C)=O)[C@@H]1O; test: Michaelis-Menten kinetics of the LLO analogs; format: biochemical, Trypanosoma brucei; conditions: other: 20 nM TbSTT3A, 10 µM acceptor peptide, varying LLO analog concentration; pH 7.5
Description: as §1, §2

[6] = substrate: CC(=O)NC1C(OC2C(CO)OC(OP(=O)(O)OP(=O)(O)OCCC(C)CCC=C(C)CCC=C(C)CCC=C(C)C)C(NC(C)=O)C2O)OC(CO)C(O)C1O; test: Michaelis-Menten kinetics of the LLO analogs; format: biochemical, Trypanosoma brucei; conditions: other: 20 nM TbSTT3A, 10 µM acceptor peptide, varying LLO analog concentration; pH 7.5
Description: as §1, §2

Chain of PglB (B9KDD4 whole entry): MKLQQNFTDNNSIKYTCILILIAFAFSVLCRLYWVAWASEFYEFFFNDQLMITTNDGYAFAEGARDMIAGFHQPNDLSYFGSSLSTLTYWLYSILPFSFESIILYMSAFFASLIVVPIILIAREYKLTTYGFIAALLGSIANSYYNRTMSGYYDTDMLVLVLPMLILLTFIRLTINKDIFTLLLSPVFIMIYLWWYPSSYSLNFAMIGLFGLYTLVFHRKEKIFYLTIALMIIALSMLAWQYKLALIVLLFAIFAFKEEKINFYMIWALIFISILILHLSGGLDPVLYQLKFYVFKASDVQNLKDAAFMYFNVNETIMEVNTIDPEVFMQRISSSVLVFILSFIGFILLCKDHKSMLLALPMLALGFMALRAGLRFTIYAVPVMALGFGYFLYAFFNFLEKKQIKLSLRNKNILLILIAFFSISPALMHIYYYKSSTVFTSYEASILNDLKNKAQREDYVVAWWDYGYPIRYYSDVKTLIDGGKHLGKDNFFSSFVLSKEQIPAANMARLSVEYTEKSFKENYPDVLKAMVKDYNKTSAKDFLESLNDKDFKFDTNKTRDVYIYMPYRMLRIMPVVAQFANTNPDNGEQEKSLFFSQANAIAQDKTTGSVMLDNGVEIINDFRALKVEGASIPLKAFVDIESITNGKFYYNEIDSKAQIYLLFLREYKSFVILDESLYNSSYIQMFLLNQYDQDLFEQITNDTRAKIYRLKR

Dol-PP-GlcNAc
Recognition as donor substrate in vitro [1]: poor donor
Recognition as donor substrate in vitro [2]: poor donor

CC(=O)NC1C(OP(=O)(O)OP(=O)(O)OCC=C(C)CCC=C(C)CCC=C(C)C)OC(CO)C(O)C1O (stereo not shown) [farnesyl-PP-GlcNAc, reference compound]
Effect on ATPase activity of PglK (bacterial flippase PglK): stimulated ATPase activity
In vitro substrate of PglB (PglB): accepted as an in vitro substrate
Donor substrate for TbSTT3A (glycopeptide product formation) (TbSTT3A): no glycopeptide product was observed
Donor substrate for TbSTT3A (glycopeptide product formation) (TbSTT3A; listed as farnesyl-PP-GlcNac): not recognized as a substrate

B1: TbSTT3A (Trypanosoma brucei brucei TREU927) (protein)
chain: MTKGGKVAVTKGSAQSDGAGEGGMSKAKSSTTFVATGGGSLPAWALKAVSTIVSAVILIYSVHRAYDIRLTSVRLYGELIHEFDPWFNYRATQYLSDNGWRAFFQWYDYMSWYPLGRPVGTTIFPGMQLTGVAIHRVLEMLGRGMSINNICVYIPAWFGSIATVLAALIAYESSNSLSVMAFTAYFFSIVPAHLMRSMAGEFDNECVAMAAMLLTFYMWVRSLRSSSSWPIGALAGVAYGYMVSTWGGYIFVLNMVAFHASVCVLLDWARGIYSVSLLRAYSLFFVIGTALAICVPPVEWTPFRSLEQLTALFVFVFMWALHYSEYLRERARAPIHSSKALQIRARIFMGTLSLLLIVASLLAPFGFFKPTAYRVRALFVKHTRTGNPLVDSVAEHRPTTAGAYLRYFHVCYPLWGCGGLSMLVFMKKDRWRAIVFLASLSTVTMYFSARMSRLLLLAGPAATACAGMFIGGLFDLALSQFGDLHSPKDASGDSDPAGGSKRAKGKVVNEPSKRAIFSHRWFQRLVQSLPVPLRRGIAVVVLVCLFANPMRHSFEKSCEKMAHALSSPRIIAVTDLPNGERVLADDYYVSYLWLRNNTPEDARILSWWDYGYQITGIGNRTTLADGNTWSHKHIATIGKMLTSPVKESHALIRHLADYVLIWAGEDRGDLLKSPHMARIGNSVYRDMCSEDDPRCRQFGFEGGDLNKPTPMMQRSLLYNLHRFGTDGGKTQLDKNMFQLAYVSKYGLVKIYKVVNVSEESKAWVADPKNRVCDPPGSWICAGQYPPAKEIQDMLAKRFHYE
Km [3]: 5.6 ± 0.8 µM
Km [4]: 95 ± 18 µM
Km [5]: 2.5 ± 0.3 µM
Km [6]: 5.3 ± 0.9 µM
